Measurements reported in the kinase profiling compilation of Christmann-Franck et al. (2016).

How the values were obtained:
Experiment in all cases: KINOMEscan competition binding
Conditions in all cases: compound 10.0 µM
GRK1 (human) = GRK1 (human) (UniProt Q15835)
FGFR2 (human) = FGFR2 (human) (UniProt P21802)
BLK (human) = BLK (human) (UniProt P51451)
CDKL3 (human) = CDKL3 (human) (UniProt Q8IVW4)
CLK1 (human) = CLK1 (human) (UniProt P49759)
MAPK13 (human) = MAPK13 (human) (UniProt O15264)
MAP3K6 (human) = MAP3K6 (human) (UniProt O95382)
CDK9 (human) = CDK9 (human) (UniProt P50750)
MYLK (human) = MYLK (human) (UniProt Q15746)
Chain of MYLK (human) (Q15746 whole entry, looked up): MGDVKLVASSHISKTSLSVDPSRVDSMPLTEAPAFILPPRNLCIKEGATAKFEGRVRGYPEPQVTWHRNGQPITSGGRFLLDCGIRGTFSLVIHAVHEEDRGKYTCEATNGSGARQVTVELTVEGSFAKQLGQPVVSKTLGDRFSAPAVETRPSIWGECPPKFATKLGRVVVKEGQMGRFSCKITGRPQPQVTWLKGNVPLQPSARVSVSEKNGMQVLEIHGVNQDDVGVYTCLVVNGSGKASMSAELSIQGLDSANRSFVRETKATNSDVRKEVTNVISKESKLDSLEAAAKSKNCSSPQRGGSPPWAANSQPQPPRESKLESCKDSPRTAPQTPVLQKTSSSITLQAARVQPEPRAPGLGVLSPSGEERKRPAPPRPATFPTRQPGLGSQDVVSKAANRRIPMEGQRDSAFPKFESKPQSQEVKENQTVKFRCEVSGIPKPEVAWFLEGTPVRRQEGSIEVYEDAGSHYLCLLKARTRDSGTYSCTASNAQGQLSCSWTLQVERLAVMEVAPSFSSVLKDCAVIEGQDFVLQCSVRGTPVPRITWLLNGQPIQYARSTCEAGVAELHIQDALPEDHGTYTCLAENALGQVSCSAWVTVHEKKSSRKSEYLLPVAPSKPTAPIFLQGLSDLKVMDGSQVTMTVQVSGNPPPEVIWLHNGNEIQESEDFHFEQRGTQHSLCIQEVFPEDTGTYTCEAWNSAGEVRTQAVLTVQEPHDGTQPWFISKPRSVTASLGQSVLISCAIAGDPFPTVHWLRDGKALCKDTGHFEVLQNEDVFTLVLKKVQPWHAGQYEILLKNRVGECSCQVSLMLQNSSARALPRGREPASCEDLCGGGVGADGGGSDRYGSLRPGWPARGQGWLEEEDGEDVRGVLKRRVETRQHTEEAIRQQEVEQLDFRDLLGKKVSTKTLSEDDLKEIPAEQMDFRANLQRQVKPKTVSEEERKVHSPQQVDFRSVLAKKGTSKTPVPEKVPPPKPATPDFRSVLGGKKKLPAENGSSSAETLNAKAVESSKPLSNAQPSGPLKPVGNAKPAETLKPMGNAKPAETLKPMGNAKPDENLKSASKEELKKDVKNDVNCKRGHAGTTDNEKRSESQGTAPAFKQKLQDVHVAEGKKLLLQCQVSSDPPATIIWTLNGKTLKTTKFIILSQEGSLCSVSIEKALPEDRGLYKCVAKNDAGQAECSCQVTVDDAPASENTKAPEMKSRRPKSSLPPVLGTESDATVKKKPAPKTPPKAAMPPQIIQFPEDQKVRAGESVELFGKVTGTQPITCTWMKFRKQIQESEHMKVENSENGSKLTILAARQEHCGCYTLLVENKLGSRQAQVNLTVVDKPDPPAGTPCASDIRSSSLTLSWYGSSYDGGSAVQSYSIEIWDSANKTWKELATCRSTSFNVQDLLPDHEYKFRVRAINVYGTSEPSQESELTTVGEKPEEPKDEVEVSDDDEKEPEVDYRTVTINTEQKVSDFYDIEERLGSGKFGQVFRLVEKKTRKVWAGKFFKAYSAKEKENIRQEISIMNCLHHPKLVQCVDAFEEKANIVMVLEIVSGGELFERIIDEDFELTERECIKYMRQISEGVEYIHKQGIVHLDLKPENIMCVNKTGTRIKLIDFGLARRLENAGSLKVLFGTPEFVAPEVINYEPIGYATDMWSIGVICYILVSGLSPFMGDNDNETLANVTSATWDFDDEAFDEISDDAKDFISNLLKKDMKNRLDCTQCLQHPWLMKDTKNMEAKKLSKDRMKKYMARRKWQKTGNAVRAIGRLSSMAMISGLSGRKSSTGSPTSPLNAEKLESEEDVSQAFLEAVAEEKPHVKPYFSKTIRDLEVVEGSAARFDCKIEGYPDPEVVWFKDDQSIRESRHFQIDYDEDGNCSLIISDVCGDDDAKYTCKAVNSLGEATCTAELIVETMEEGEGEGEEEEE

PRKCD (human) = PRKCD (human) (UniProt Q05655)
KDR (human) = KDR (human) (UniProt P35968)
MAP3K13 (human) = MAP3K13 (human) (UniProt O43283)
STK24 (human) = STK24 (human) (UniProt Q9Y6E0)
Chain of STK24 (human) (Q9Y6E0 whole entry, looked up): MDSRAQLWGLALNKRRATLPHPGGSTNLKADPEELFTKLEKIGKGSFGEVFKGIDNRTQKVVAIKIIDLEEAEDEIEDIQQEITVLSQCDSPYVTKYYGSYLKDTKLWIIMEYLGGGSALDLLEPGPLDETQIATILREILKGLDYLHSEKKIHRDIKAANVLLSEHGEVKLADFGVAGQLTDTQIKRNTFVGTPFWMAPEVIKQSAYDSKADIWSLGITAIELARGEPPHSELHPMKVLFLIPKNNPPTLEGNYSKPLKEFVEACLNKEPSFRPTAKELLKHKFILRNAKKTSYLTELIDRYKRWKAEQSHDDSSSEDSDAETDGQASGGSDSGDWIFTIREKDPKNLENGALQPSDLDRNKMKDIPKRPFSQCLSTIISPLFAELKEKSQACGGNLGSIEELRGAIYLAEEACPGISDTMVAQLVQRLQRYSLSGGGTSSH

CAMK1D (human) = CAMK1D (human) (UniProt Q8IU85)
TAOK2 (human) = TAOK2 (human) (UniProt Q9UL54)
STK39 (human) = STK39 (human) (UniProt Q9UEW8)
CHEK1 (human) = CHEK1 (human) (UniProt O14757)
CLK4 (human) = CLK4 (human) (UniProt Q9HAZ1)
MELK (human) = MELK (human) (UniProt Q14680)
STK32A (human) = STK32A (human) (UniProt Q8WU08)
HUNK (human) = HUNK (human) (UniProt P57058)
DDR1 (human) = DDR1 (human) (UniProt Q08345)
MAP4K2 (human) = MAP4K2 (human) (UniProt Q12851)
HIPK1 (human) = HIPK1 (human) (UniProt Q86Z02)
Chain of HIPK1 (human) (Q86Z02 whole entry, looked up): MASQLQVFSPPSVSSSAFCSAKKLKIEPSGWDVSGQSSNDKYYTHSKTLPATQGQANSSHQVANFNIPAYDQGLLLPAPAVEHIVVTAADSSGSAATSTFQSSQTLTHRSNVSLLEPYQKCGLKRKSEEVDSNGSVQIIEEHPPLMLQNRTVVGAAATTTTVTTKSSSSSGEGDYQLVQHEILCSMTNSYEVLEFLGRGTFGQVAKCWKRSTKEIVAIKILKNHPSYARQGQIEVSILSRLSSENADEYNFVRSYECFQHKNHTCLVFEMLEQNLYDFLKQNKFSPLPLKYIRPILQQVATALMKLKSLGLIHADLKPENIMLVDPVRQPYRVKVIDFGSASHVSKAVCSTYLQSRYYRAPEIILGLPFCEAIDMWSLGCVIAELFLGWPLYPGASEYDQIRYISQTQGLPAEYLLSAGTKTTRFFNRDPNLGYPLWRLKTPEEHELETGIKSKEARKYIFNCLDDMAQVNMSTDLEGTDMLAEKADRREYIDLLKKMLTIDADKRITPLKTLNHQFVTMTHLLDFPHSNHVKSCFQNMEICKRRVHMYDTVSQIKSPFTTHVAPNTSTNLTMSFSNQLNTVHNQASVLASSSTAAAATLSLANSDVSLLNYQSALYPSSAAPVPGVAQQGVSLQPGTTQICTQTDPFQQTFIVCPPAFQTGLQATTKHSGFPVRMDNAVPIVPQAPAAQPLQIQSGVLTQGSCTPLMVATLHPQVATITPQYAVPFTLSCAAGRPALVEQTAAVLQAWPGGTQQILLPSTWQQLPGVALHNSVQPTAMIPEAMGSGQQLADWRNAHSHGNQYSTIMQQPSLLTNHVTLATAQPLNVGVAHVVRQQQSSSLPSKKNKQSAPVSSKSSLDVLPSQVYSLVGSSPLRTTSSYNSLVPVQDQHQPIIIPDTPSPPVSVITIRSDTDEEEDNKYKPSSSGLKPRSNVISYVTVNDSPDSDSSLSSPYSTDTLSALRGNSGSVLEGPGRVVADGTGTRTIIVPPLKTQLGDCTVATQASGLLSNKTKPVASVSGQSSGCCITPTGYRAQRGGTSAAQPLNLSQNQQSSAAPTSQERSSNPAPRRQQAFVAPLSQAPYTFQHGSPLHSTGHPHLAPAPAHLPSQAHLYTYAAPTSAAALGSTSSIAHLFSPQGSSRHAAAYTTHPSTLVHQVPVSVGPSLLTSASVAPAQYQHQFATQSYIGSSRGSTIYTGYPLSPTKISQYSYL

CSNK1G2 (human) = CSNK1G2 (human) (UniProt P78368)
MAP4K4 (human) = MAP4K4 (human) (UniProt O95819)
PTK6 (human) = PTK6 (human) (UniProt Q13882)
STK4 (human) = STK4 (human) (UniProt Q13043)
BRSK2 (human) = BRSK2 (human) (UniProt Q8IWQ3)
MAP3K9 (human) = MAP3K9 (human) (UniProt P80192)
CDK15 (human) = CDK15 (human) (UniProt Q96Q40)
PRKCQ (human) = PRKCQ (human) (UniProt Q04759)
CDC2L2 (human) = CDC2L2 (human) (UniProt Q9UQ88)
ULK3 (human) = ULK3 (human) (UniProt Q6PHR2)
STK32B (human) = STK32B (human) (UniProt Q9NY57)
STK38 (human) = STK38 (human) (UniProt Q15208)
Chain of STK38 (human) (Q15208 whole entry, looked up): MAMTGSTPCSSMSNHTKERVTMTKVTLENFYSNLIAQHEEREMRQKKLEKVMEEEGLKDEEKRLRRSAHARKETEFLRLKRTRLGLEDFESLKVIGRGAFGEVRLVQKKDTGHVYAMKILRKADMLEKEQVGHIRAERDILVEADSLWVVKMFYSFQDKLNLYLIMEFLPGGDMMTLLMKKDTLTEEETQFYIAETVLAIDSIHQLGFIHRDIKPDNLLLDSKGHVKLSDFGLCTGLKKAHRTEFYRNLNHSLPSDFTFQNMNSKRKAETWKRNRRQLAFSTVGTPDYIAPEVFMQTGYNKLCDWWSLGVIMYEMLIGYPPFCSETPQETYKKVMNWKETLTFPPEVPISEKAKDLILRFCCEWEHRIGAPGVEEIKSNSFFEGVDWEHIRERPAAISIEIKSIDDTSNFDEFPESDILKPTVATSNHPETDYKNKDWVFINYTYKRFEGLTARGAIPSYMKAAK

PAK1 (human) = PAK1 (human) (UniProt Q13153)
Chain of PAK1 (human) (Q13153 whole entry, looked up): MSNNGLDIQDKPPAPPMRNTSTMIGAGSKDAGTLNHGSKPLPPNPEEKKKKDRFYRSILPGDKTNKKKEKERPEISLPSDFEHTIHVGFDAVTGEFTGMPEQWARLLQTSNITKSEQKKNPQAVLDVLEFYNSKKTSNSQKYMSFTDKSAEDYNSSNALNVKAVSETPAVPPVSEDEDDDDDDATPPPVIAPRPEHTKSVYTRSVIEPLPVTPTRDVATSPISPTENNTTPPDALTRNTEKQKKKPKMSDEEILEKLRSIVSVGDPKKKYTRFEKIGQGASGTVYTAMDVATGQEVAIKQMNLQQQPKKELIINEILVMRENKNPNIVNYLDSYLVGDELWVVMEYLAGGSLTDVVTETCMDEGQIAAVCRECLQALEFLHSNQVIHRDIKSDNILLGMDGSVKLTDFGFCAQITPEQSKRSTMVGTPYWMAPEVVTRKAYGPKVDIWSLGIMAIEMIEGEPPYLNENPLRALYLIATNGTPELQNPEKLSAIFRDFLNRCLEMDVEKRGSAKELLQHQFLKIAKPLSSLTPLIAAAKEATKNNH

RPS6KA1 KD2 (human) = RPS6KA1 KD2 (human) (UniProt Q15418)
CAMK2D (human) = CAMK2D (human) (UniProt Q13557)
Chain of CAMK2D (human) (Q13557 whole entry, looked up): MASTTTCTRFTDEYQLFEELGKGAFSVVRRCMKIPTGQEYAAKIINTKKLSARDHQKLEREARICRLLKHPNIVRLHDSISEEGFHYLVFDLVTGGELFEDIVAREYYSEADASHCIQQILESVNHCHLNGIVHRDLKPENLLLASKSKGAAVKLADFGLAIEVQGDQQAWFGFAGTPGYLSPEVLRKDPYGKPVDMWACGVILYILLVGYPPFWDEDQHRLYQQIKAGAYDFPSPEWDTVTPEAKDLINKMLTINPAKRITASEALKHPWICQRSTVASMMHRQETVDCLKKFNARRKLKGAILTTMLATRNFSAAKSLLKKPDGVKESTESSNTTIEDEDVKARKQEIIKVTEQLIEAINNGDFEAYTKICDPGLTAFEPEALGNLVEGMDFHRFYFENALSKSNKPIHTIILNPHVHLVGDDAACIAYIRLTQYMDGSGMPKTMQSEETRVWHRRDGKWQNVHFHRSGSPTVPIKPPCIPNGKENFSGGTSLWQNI

PKN1 (human) = PKN1 (human) (UniProt Q16512)

Compound: COCC(=O)NC/C=C/c1ccc2ncnc(Nc3ccc(Oc4ccc(C)nc4)c(C)c3)c2c1
- kinase still bound, per cent of control (GRK1 (human)): 100%
- kinase still bound, per cent of control (FGFR2 (human)): 100%
- kinase still bound, per cent of control (BLK (human)): 62%
- kinase still bound, per cent of control (CDKL3 (human)): 100%
- kinase still bound, per cent of control (CLK1 (human)): 90%
- kinase still bound, per cent of control (MAPK13 (human)): 100%
- kinase still bound, per cent of control (MAP3K6 (human)): 100%
- kinase still bound, per cent of control (CDK9 (human)): 100%
- kinase still bound, per cent of control (MYLK (human)): 87%
- kinase still bound, per cent of control (PRKCD (human)): 87%
- kinase still bound, per cent of control (KDR (human)): 100%
- kinase still bound, per cent of control (MAP3K13 (human)): 80%
- kinase still bound, per cent of control (STK24 (human)): 90%
- kinase still bound, per cent of control (CAMK1D (human)): 87%
- kinase still bound, per cent of control (TAOK2 (human)): 100%
- kinase still bound, per cent of control (STK39 (human)): 100%
- kinase still bound, per cent of control (CHEK1 (human)): 90%
- kinase still bound, per cent of control (CLK4 (human)): 100%
- kinase still bound, per cent of control (MELK (human)): 92%
- kinase still bound, per cent of control (STK32A (human)): 100%
- kinase still bound, per cent of control (HUNK (human)): 70%
- kinase still bound, per cent of control (DDR1 (human)): 52%
- kinase still bound, per cent of control (MAP4K2 (human)): 100%
- kinase still bound, per cent of control (HIPK1 (human)): 88%
- kinase still bound, per cent of control (CSNK1G2 (human)): 100%
- kinase still bound, per cent of control (MAP4K4 (human)): 97%
- kinase still bound, per cent of control (PTK6 (human)): 100%
- kinase still bound, per cent of control (STK4 (human)): 87%
- kinase still bound, per cent of control (BRSK2 (human)): 100%
- kinase still bound, per cent of control (MAP3K9 (human)): 74%
- kinase still bound, per cent of control (CDK15 (human)): 71%
- kinase still bound, per cent of control (PRKCQ (human)): 100%
- kinase still bound, per cent of control (CDC2L2 (human)): 100%
- kinase still bound, per cent of control (ULK3 (human)): 68%
- kinase still bound, per cent of control (STK32B (human)): 92%
- kinase still bound, per cent of control (STK38 (human)): 73%
- kinase still bound, per cent of control (PAK1 (human)): 81%
- kinase still bound, per cent of control (RPS6KA1 KD2 (human)): 73%
- kinase still bound, per cent of control (CAMK2D (human)): 100%
- kinase still bound, per cent of control (PKN1 (human)): 100%
